System: 439559-082-T-J2-PDC spheroid viability
Assay: Anticancer human tumor 439559-082-T-J2-PDC patient-derived colon adenocarcinoma cell line growth inhibition [POLQ]
Conditions: spheroids with HUVEC and MSC; for IC50: curve of first compound; for viability, T/C: stronger effect = lower value
Procedure, shortened: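 Three-cell-type spheroids modelling solid tumor plus stroma served as the readout system; POL inhibitors were tested individually and in combination, concentration ranges set by clinical Cmax where known.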

[1] = second compound 0.0316 µM, first compound 0.000316 µM
[2] = second compound 0.0316 µM, first compound 0.001 µM
[3] = second compound 0.0316 µM, first compound 0.00316 µM
[4] = second compound 0.0316 µM, first compound 0.01 µM
[5] = second compound 0.0316 µM, first compound 0.0316 µM
[6] = second compound 0.0316 µM, first compound 0.1 µM
[7] = second compound 0.1 µM, first compound 0.000316 µM
[8] = second compound 0.1 µM, first compound 0.001 µM
[9] = second compound 0.1 µM, first compound 0.00316 µM
[10] = second compound 0.1 µM, first compound 0.01 µM
[11] = second compound 0.1 µM, first compound 0.0316 µM
[12] = second compound 0.1 µM, first compound 0.1 µM
[13] = second compound 0.316 µM, first compound 0.000316 µM
[14] = second compound 0.316 µM, first compound 0.001 µM
[15] = second compound 0.316 µM, first compound 0.00316 µM
[16] = second compound 0.316 µM, first compound 0.01 µM
[17] = second compound 0.316 µM, first compound 0.0316 µM
[18] = second compound 0.316 µM, first compound 0.1 µM
[19] = second compound 1 µM, first compound 0.000316 µM
[20] = second compound 1 µM, first compound 0.001 µM
[21] = second compound 1 µM, first compound 0.00316 µM
[22] = second compound 1 µM, first compound 0.01 µM
[23] = second compound 1 µM, first compound 0.0316 µM
[24] = second compound 1 µM, first compound 0.1 µM
[25] = second compound 3.16 µM, first compound 0.000316 µM
[26] = second compound 3.16 µM, first compound 0.001 µM
[27] = second compound 3.16 µM, first compound 0.00316 µM
[28] = second compound 3.16 µM, first compound 0.01 µM
[29] = second compound 3.16 µM, first compound 0.0316 µM
[30] = second compound 3.16 µM, first compound 0.1 µM
[31] = second compound 10 µM, first compound 0.000316 µM
[32] = second compound 10 µM, first compound 0.001 µM
[33] = second compound 10 µM, first compound 0.00316 µM
[34] = second compound 10 µM, first compound 0.01 µM
[35] = second compound 10 µM, first compound 0.0316 µM
[36] = second compound 10 µM, first compound 0.1 µM
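Note: spheroids exposed to compounds for seven days before readout.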
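Throughout, for viability, T/C: 100% = DMSO vehicle control viability.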

**Q.** With Cn1ncnc1[C@H]1c2n[nH]c(=O)c3cc(F)cc(c23)N[C@@H]1c1ccc(F)cc1 + COC1C(OC(N)=O)C(O)C(Oc2ccc3c(O)c(NC(=O)c4ccc(O)c(CC=C(C)C)c4)c(=O)oc3c2C)OC1(C)C as the compound, how does the IC50 (second compound 0.0316 µM) read?
**A.** > 100 nM

**Q.** What about the IC50 (second compound 0.1 µM) of the same compound?
**A.** > 100 nM

**Q.** What about the IC50 (second compound 0.316 µM) of the same compound?
**A.** > 100 nM

**Q.** And the IC50 (second compound 1 µM)?
**A.** > 100 nM

**Q.** What about the IC50 (second compound 3.16 µM) of the same compound?
**A.** > 100 nM

**Q.** What about the IC50 (second compound 10 µM) of the same compound?
**A.** > 100 nM

**Q.** What about the viability, T/C [1] of the same compound?
**A.** 110%

**Q.** And the viability, T/C [2]?
**A.** 95.8%

**Q.** What about the viability, T/C [3] of the same compound?
**A.** 102%

**Q.** What about the viability, T/C [4] of the same compound?
**A.** 99.8%

**Q.** What about the viability, T/C [5] of the same compound?
**A.** 99%

**Q.** And the viability, T/C [6]?
**A.** 95.4%

**Q.** And the viability, T/C [7]?
**A.** 110%

**Q.** And the viability, T/C [8]?
**A.** 108%

**Q.** And the viability, T/C [9]?
**A.** 109%

**Q.** And the viability, T/C [10]?
**A.** 101%

**Q.** And the viability, T/C [11]?
**A.** 99.4%

**Q.** What about the viability, T/C [12] of the same compound?
**A.** 91.1%

**Q.** What about the viability, T/C [13] of the same compound?
**A.** 104%

**Q.** What about the viability, T/C [14] of the same compound?
**A.** 102%

**Q.** And the viability, T/C [15]?
**A.** 103%

**Q.** And the viability, T/C [16]?
**A.** 102%

**Q.** What about the viability, T/C [17] of the same compound?
**A.** 94.1%

**Q.** And the viability, T/C [18]?
**A.** 91.1%

**Q.** And the viability, T/C [19]?
**A.** 108%

**Q.** What about the viability, T/C [20] of the same compound?
**A.** 97.1%

**Q.** What about the viability, T/C [21] of the same compound?
**A.** 103%

**Q.** And the viability, T/C [22]?
**A.** 94.2%

**Q.** What about the viability, T/C [23] of the same compound?
**A.** 99.1%

**Q.** And the viability, T/C [24]?
**A.** 99%

**Q.** And the viability, T/C [25]?
**A.** 101%

**Q.** And the viability, T/C [26]?
**A.** 99.6%

**Q.** And the viability, T/C [27]?
**A.** 102%

**Q.** And the viability, T/C [28]?
**A.** 102%

**Q.** And the viability, T/C [29]?
**A.** 96.5%

**Q.** And the viability, T/C [30]?
**A.** 93.5%

**Q.** And the viability, T/C [31]?
**A.** 106%

**Q.** And the viability, T/C [32]?
**A.** 93.3%

**Q.** And the viability, T/C [33]?
**A.** 108%

**Q.** What about the viability, T/C [34] of the same compound?
**A.** 96%

**Q.** What about the viability, T/C [35] of the same compound?
**A.** 104%

**Q.** And the viability, T/C [36]?
**A.** 91%

**Q.** Which results are given for Cn1ncnc1[C@H]1c2n[nH]c(=O)c3cc(F)cc(c23)N[C@@H]1c1ccc(F)cc1 + Cc1cccc(N(C)C(=O)C2C(O)CCN2c2nc(C)cc(C(F)(F)F)c2C#N)c1?
**A.** IC50 (second compound 0.0316 µM): > 100 nM; IC50 (second compound 0.1 µM): > 100 nM; IC50 (second compound 0.316 µM): > 100 nM; IC50 (second compound 1 µM): > 100 nM; IC50 (second compound 3.16 µM): > 100 nM; IC50 (second compound 10 µM): > 100 nM; viability, T/C [1]: 97.7%; viability, T/C [2]: 103%; viability, T/C [3]: 97.5%; viability, T/C [4]: 99.2%; viability, T/C [5]: 90.8%; viability, T/C [6]: 93.4%; viability, T/C [7]: 108%; viability, T/C [8]: 108%; viability, T/C [9]: 96%; viability, T/C [10]: 102%; viability, T/C [11]: 94.5%; viability, T/C [12]: 86.3%; viability, T/C [13]: 105%; viability, T/C [14]: 107%; viability, T/C [15]: 99.6%; viability, T/C [16]: 99.5%; viability, T/C [17]: 92.7%; viability, T/C [18]: 93.4%; viability, T/C [19]: 110%; viability, T/C [20]: 96.5%; viability, T/C [21]: 93.1%; viability, T/C [22]: 92.8%; viability, T/C [23]: 99.9%; viability, T/C [24]: 96.8%; viability, T/C [25]: 93%; viability, T/C [26]: 103%; viability, T/C [27]: 103%; viability, T/C [28]: 91.9%; viability, T/C [29]: 101%; viability, T/C [30]: 87.5%; viability, T/C [31]: 95.7%; viability, T/C [32]: 98.1%; viability, T/C [33]: 95.4%; viability, T/C [34]: 86.2%; viability, T/C [35]: 91.5%; viability, T/C [36]: 85.2%

From PubChem BioAssay AID1963841 (Molecular Pharmacology Branch, DTP, NCI, 2024)
